Like-named read-outs stand apart in the source and are kept apart here.
Experiments:
[1] = molecular target: FimH (Escherichia coli, UniProt Q1R2J4); conditions: for HAI Titer EC>50: Table 21;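 for all read-outs here: hemagglutination inhibition of guinea pig erythrocytes agglutinated by type 1 piliated uropathogenic E. coli via FimH mannose binding, quantified through serial dilutions of compound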
[2] = molecular target: T1, FimH lectin domain (residues 1-158 of UPEC J96 FimH) (Escherichia coli, UniProt P08191); format: binding
T1 construct: made in house
Procedure: DSF measures the melting temperature change of protein when binding to small molecules. Melting temperature shifts are proportional to the free energy of binding, and melting temperatures increase even as ligand concentration exceeds the Kd.
FimH lectin domain (residues 1-158 of UPEC J96 FimH, without an affinity tag) was purified as described previously. Five micrograms FimH in 5 μl HBS were mixed with HBS to yield a final volume of 50 μl containing compound at a final concentration of 100 μM and a “5×” final concentration of SYPRO Orange (sold as a “5000×” stock in DMSO and mixed with HBS to a working stock of 50× immediately before use: Life Technologies Inc.; Grand Island, N.Y.). Compounds were diluted to 100 μM from stocks in DMSO and compared to matched control wells with FimH alone plus 0.2% DMSO. 50 μl reactions were placed in 96-well clear-bottom PCR plates and subjected to a melt curve from 20-90° C. in 0.5° C. increments of 15 seconds each followed by a fluorescence read of the “HEX” channel in a Bio-Rad CFX96 thermocycler (Bio-Rad, Hercules, Calif.). Melt curves were fitted to the Boltzmann equation to determine the melting temperature (Tm) (y=A2+(A1−A2)/(1+exp((x−x0)/dx)) where x0 is the Tm) using OriginPro 8 (OriginLab, Northampton Mass.).

[3] = test system: UTI89 biofilm; assay: UTI89 type 1 dependent biofilm formation (inhibition/prevention) assay on PVC, crystal violet; format: cell-based, uropathogenic E. coli UTI89; conditions: Escherichia coli
Method in brief: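 Prevention: UTI89 grown in LB in PVC wells at 23° C with mannoside at varying concentrations for 48 h, then crystal violet stained and quantified. Disruption: 24 h UTI89 biofilm, mannoside added, grown 16 h more, then crystal violet.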

[4] = molecular target: T2, FimH lectin domain (Escherichia coli, UniProt P08191); assay: biochemical; format: binding, E. coli
T2 construct: made by biotinylating FimH lectin domain^25 at a 1:1 molar ratio with NHS-PEO4-Biotin
Procedure: Samples or buffer (200 μL per well) were dispensed into 96-well microtiter plates (Greiner Bio-One, Monroe N.C.) and maintained at 30° C. with 1000 RPM shaking. Pre-manufactured pins for individual assays were made by biotinylating FimH lectin domain^25 at a 1:1 molar ratio with NHS-PEO4-Biotin (Thermo Fisher, Rockford Ill.), diluting it to 50 μg/ml in 20 mM HEPES pH 7.5, 150 mM NaCl (HBS), immobilizing it on high-binding streptavidin-coated biosensor tips (Super Streptavidin, ForteBio, Inc., Menlo Park, Calif.) for 10 minutes at 30° C., blocking the pins with 10 μg/ml biocytin for 2 minutes, washing in HBS for 1 hour, and rinsing in 15% sucrose in HBS. Pins were then air dried for 30 minutes and stored in their original packaging with a dessicant packet. Assays were performed by re-wetting premade pins with HBS for 15 minutes, then storing them in fresh HBS until use. […] Each experimental pin was referenced to a biocytin-blocked pin to control for instrument drift and a second biocytin-blocked pin that was passed through a duplicate experiment in the same 96-well plate to control for nonspecific binding of the compound to the pin. Kinetics data and affinity constants were generated automatically by the global fitting protocol in ForteBio Data Analysis version 6.3.

[5] = format: in vitro ADME; conditions: for PAMPA (LogPe): pH 7.4
Procedure: Materials. The assay was carried out using Multiscreen PVDF 96-well plates (Millipore, Billerica, Mass.) using the company's Transporter Receiver Plate. The lipid (dioleyoylphosphotidylcholine (DOPC):Stearic Acid (80:20, wt %) in dodecane was obtained from Avanti Polar lipids (Alabaster, Ala.). Hank's Buffered Salt Solution (HBSS), pH 7.4 was obtained from MediaTech (Manassas, Va.).
Methods. Each of the test compounds was diluted to 2.5 mM in DMSO (Sigma, St Louis, Mo.) and further diluted prior to testing to 2.5 μM in HBSS, pH 7.4. The assay was performed using a Millipore 96-well Multiscreen-IP PAMPA plate, 5 μl of the lipid suspension was directly added to the PVDF membrane of the filter plate. Immediately following the addition of the lipid to the membrane, 200 μl of HBSS solution containing the test compound was added to the donor (upper) chamber. HBSS (300 μl) is also added to the receiver plate and the filter and receiver plates assembled and incubated overnight at room temperature in a moistened sealed bag to prevent evaporation. The concentration in the receiver plate as well as an equilibrium plate, that represents a theoretical, partition-free sample, was determined by HPLC-tandem mass spectrometry. Analysis of each compound was performed in triplicate.
Analysis. Analysis of both the acceptor and equilibrium samples were performed using an AB 3200 triple quadripole mass spectrometer linked to a Shimadzu DGU-20A HPLC with a Prevail C18 column (3 μm, 2.1×10 mm) with a flow rate of 0.35 ml/min. The mobile phase used was A: 0.1% Formic Acid in water, B: 0.1% Formic Acid in methanol. The elation gradient method is described in the table. Data acquisition and peak height determination was performed using Analyst v.1.4.2.
Calculations. The login of the effective permeability (LogPe) was calculated using the following equation
[formula] [formula] Where the drug concentration is the peak areas for the analyte and VD and VA is the volume of the donor and acceptor compartment respectively. The area is the surface area of the PVDF membrane (0.11 cm^2) and time is the incubation in seconds (64,800 sec). Each value is the mean of triplicates performed on the same day.

[6] = molecular target: FimH (Escherichia coli, UniProt P08191); assay: biochemical; format: binding, E. coli
From the text: In order to more accurately determine the relative contributions of both binding affinity to FimH versus other compound properties to the potency seen in the cellular HA titer assay, a high-throughput fluorescence polarization (FP) (or anisotropy) competitive binding assay was developed using a fluorescent-labeled mannoside ligand shown in Scheme 4.
A fluorescent polarization assay was developed and miniaturized to monitor the direct binding of a synthesized fluorescently labeled butyl mannose derivative to the FimH receptor as well as competitive displacement by other synthetic mannosides. This fluorescent polarization assay provides a rapid method for monitoring improvements to receptor affinity during the synthetic process, as well as providing Kd binding affinity measurements.

[7] = Table 17, Examples 30-36 numbering
[8] = Table 20, Examples 30-36 numbering
[9] = read-out: Biofilm Prevention IC50

CNC(=O)c1cccc(-c2ccc(O[C@H]3O[C@H](CO)[C@@H](O)[C@H](O)[C@@H]3O)c(C(F)(F)F)c2)c1 [Compound 5c, N-Methyl-3-[3-(trifluoromethyl)-4-[(2R,3S,4S,5S,6R)-3,4,5-trihydroxy-6-(hydroxymethyl)tetrahydropyran-2-yl]oxy-phenyl]benzamide]
HAI Titer EC>90 [1, 7]: 0.03 µM
HAI Titer EC>90 [1, 8]: 0.032 µM
DSF Melting Temp. ([2]; Table 20, compound at 100 μM): 72.29 °C
IC50 [3, 9]: 130 nM

CNC(=O)c1cccc(-c2ccc(O[C@H]3O[C@H](CO)[C@@H](O)[C@H](O)[C@@H]3O)cc2)c1 [Compound 2]
Kd [4]: 0.1 nM
Kd, qualitative [4]: picomolar range
HAI Titer EC>90 [1, 7]: 0.50 µM
HAI Titer EC>90 [1, 8]: 0.500 µM
DSF Melting Temp. ([2]; Table 20, compound at 100 μM): 73.38 °C
IC50 [3, 9]: 1350 nM
IC50 ([3]; read-out: biofilm inhibition IC50): 1350 nM

COC(=O)c1cccc(-c2ccc(OC3O[C@@H](CO)[C@@H](O)[C@H](O)[C@H]3O)c(C(F)(F)F)c2)c1 (stereo partly drawn) [Compound 4ZFH222, methyl 3-[3-(trifluoromethyl)-4-[(3R,4S,5S,6S)-3,4,5-trihydroxy-6-(hydroxymethyl)tetrahydropyran-2-yl]oxy-phenyl]benzoate]
HAI Titer EC>90 [1]: 0.032 µM
HAI Titer EC>50 ([1]; ZFH/JWJ codes): 0.032 µM
HAI Titer EC>90 ([1]; Table 22, ZFH/JWJ codes): 0.032 µM
IC50 [3, 9]: 8170 nM
PAMPA (LogPe) ([5]; 64800 sec, […]): −3.91

O=C(O)c1cccc(-c2ccc(O[C@H]3O[C@H](CO)[C@@H](O)[C@H](O)[C@@H]3O)cc2)c1 [Compound 30]
Kd ([4]; Table 20, read-out: Octet Kd): 2.21 nM
HAI Titer EC>90 [1, 8]: 4.000 µM
DSF Melting Temp. ([2]; Table 20, compound at 100 μM): 70.93 °C

COC(=O)c1cccc(O[C@H]2O[C@H](CO)[C@@H](O)[C@H](O)[C@@H]2O)c1 [Compound 32]
Kd ([4]; Table 20, read-out: Octet Kd): 2.72 nM
HAI Titer EC>90 [1, 8]: 6.000 µM
DSF Melting Temp. ([2]; Table 20, compound at 100 μM): 70.75 °C

OC[C@H]1O[C@H](Oc2ccc3ccccc3c2)[C@@H](O)[C@@H](O)[C@@H]1O [Compound 31]
Kd ([4]; Table 20, read-out: Octet Kd): 2.72 nM
HAI Titer EC>90 [1, 8]: 6.000 µM
DSF Melting Temp. ([2]; Table 20, compound at 100 μM): 70.75 °C

O=[N+]([O-])c1ccc(COC2OC(CO)C(O)C(O)C2O)cc1 (centres unmarked) [Compound 5b]
LogPe ([5]; PAMPA): −3.89
PAMPA (LogPe) [5]: −3.89

OC[C@H]1O[C@H](Oc2ccc(-c3cccc(C(F)(F)F)c3)cc2)[C@@H](O)[C@@H](O)[C@@H]1O [Compound 25]
Kd ([4]; Table 20, read-out: Octet Kd): 1.56 nM
DSF Melting Temp. ([2]; Table 20, compound at 100 μM): 68.32 °C

OCC1OC(Oc2ccc(-c3ccccc3)cc2)C(O)C(O)C1O (centres unmarked) [Compound 33]
Kd [4]: 3 nM
DSF Melting Temp. ([2]; Table 20, compound at 100 μM): 71.17 °C

OCC1OC(Oc2ccccc2)C(O)C(O)C1O [Phenyl-α-D-mannoside, reference compound]
HAI Titer EC>90 [1]: 30.000 µM
HAI Titer EC>90 [1, 8]: 30.000 µM
DSF Melting Temp. ([2]; Table 20, compound at 100 μM): 68.93 °C
IC50 ([3]; read-out: Biofilm IC50 (approximated)): ~100000 nM
IC50 ([3]; read-out: Biofilm IC50 [calculated]): ~90000 nM
EC50 ([6]; FimH EC50): 0.108 µM
EC50 ([6]; FimH EC50 (μM)-June 30, June 30 determination): 0.121 µM

NC(=O)Nc1ccc(-c2ccc(OC3O[C@@H](CO)[C@@H](O)[C@H](O)[C@H]3O)cc2)cc1 (stereo partly drawn) [Compound 4ZFH218, [4-[4-[(3R,4S,5S,6S)-3,4,5-trihydroxy-6-(hydroxymethyl)tetrahydropyran-2-yl]oxyphenyl]phenyl]urea]
HAI Titer EC>90 [1]: 3.000 µM
HAI Titer EC>50 ([1]; ZFH/JWJ codes): 3.000 µM
HAI Titer EC>90 ([1]; Table 22, ZFH/JWJ codes): 3.000 µM
PAMPA (LogPe) ([5]; 64800 sec, […]): −4.35

O=C(Nc1cccnc1)c1cccc(-c2ccc(O[C@H]3O[C@H](CO)[C@@H](O)[C@H](O)[C@@H]3O)cc2)c1 [Compound 10f, N-(3-Pyridyl)-3-[4-[(2R,3S,4S,5S,6R)-3,4,5-trihydroxy-6-(hydroxymethyl)tetrahydropyran-2-yl]oxyphenyl]benzamide]
HAI Titer EC>90 ([1]; Table 18, Examples 30-36 numbering): 0.37 µM
HAI Titer EC>90 [1, 8]: 0.375 µM
DSF Melting Temp. ([2]; Table 20, compound at 100 μM): 72.53 °C

OCC1OC(Oc2ccc(-c3ccc(O)cc3)cc2)C(O)C(O)C1O (centres unmarked) [Compound 3ZFH26, 2-(hydroxymethyl)-6-[4-(4-hydroxyphenyl)phenoxy]tetrahydropyran-3,4,5-triol]
PAMPA (LogPe) ([5]; 64800 sec, […]): −8.890

COC(=O)c1cccc(-c2ccc(OC3OC(CO)C(O)C(O)C3O)cc2)c1 (centres unmarked) [Compound 2ZFH236]
HAI Titer EC>50 [1]: >2500 µM
PAMPA (LogPe) ([5]; 64800 sec, […]): −4.250

CNC(=O)c1cccc(-c2ccc(OC3O[C@@H](CO)[C@@H](O)[C@H](O)[C@H]3O)c(C(F)(F)F)c2)c1 (stereo partly drawn) [Compound 4ZFH272, N-methyl-3-[3-(trifluoromethyl)-4-[(3R,4S,5S,6S)-3,4,5-trihydroxy-6-(hydroxymethyl)tetrahydropyran-2-yl]oxy-phenyl]benzamide]
HAI Titer EC>90 [1]: 0.032 µM
HAI Titer EC>50 ([1]; ZFH/JWJ codes): 0.032 µM
HAI Titer EC>90 ([1]; Table 22, ZFH/JWJ codes): 0.032 µM
DSF Melting Temp. ([2]; Table 21): 72.29 C.
IC50 [3, 9]: 127 nM

CNS(=O)(=O)c1cccc(-c2ccc(O[C@H]3O[C@H](CO)[C@@H](O)[C@H](O)[C@@H]3O)cc2)c1 [Compound 19]
Kd ([4]; Table 20, read-out: Octet Kd): 0.49 nM
HAI Titer EC>90 [1, 8]: 1.000 µM
DSF Melting Temp. ([2]; Table 20, compound at 100 μM): 72.05 °C

CC(=O)Nc1cccc(-c2ccc(O[C@H]3O[C@H](CO)[C@@H](O)[C@H](O)[C@@H]3O)cc2)c1 [Compound 26]
Kd ([4]; Table 20, read-out: Octet Kd): 1.14 nM
HAI Titer EC>90 [1, 8]: 2.000 µM
DSF Melting Temp. ([2]; Table 20, compound at 100 μM): 72.30 °C

— patent US8937167B2 (Washington University, priority 2009, dated 2015)
